Assay results from article PMC8579695, “The Stringent Response Inhibits 70S Ribosome Formation in Staphylococcus aureus by Impeding GTPase-Ribosome Interactions” (mBio, 2021).
Read-outs that look alike come from different tables or passages of the source.

How the values were obtained:
Era = Era (Staphylococcus aureus, UniProt Q2FGF6); experiment: DRaCALA binding of 32P-labeled nucleotides to 6×His-tagged Era; conditions: for Bmax, Era: Bmax values indicate the fraction bound
Experimental: (§1) The RA-GTPases RsgA, Era, RbgA, and HflX can bind to the guanosine nucleotides GTP, GDP, ppGpp, and pppGpp. Our previous work observed higher binding affinities for ppGpp over GTP, pointing toward a difference in binding between 5′ di- or triphosphate nucleotides ([27]). […] Furthermore, these previous experiments were performed using recombinant proteins fused to large MBP tags, which could impact binding affinity determination. To examine the nucleotide binding affinities of these RA-GTPases for GDP in comparison to ppGpp, pppGpp, and GTP, and in the absence of a large tag, we used a differential radial capillary action of ligand assay (DRaCALA) with recombinant RsgA, RbgA, Era, and HflX fused to a smaller 6× His tag (Fig. 1B; see also Fig. S2A to C in the supplemental material) ([36]). In each case, the affinities of 5′ diphosphate-containing GDP and ppGpp were similar in the low μM range and were 2- to 6-fold higher than the affinities of either GTP or pppGpp (Table 1).
(§2) Supplementary file : FIG S2 Examination of the binding of GDP, ppGpp, GTP, and pppGpp to RA-GTPases by DRaCALA. (A to C) Determination of binding affinities and Kd values for ^32P-labeled nucleotides to purified recombinant 6×His-tagged RsgA (A), Era (B), and HflX (C). Kd values were determined from the binding curves as previously described ([36]). (D to F) DRaCALA binding assay of recombinant RsgA (D), Era (E), and HflX (F) binding to ^32P-labeled GTP, ppGpp, and pppGpp in the presence or absence of 100 μM cold competitors (GTP, GDP, ppGpp, pppGpp, and ATP). All experiments were carried out in triplicate, with error bars representing standard deviations. Download FIG S2, TIF file, 0.9 MB.
(§3) The synthesis of (p)ppGpp and differential radial capillary action of ligand assay (DRaCALA) binding and competition assays were performed as described previously ([27]), using recombinant, 6×His-tagged protein at the concentrations specified in the figure legends.

RsgA = RsgA (Staphylococcus aureus, UniProt P67682); experiment: DRaCALA binding of 32P-labeled nucleotides to 6×His-tagged RsgA; conditions: for Bmax, RsgA: Bmax values indicate the fraction bound
Experimental: as §1, §2, §3

RbgA = RbgA (Staphylococcus aureus, UniProt A0A0H2XK72); experiment: DRaCALA binding of 32P-labeled nucleotides to 6×His-tagged RbgA; conditions: for Bmax, RbgA: Bmax values indicate the fraction bound
Source text: FIG 1 Nucleotide binding characteristics of RA-GTPases. (A) Schematic representation of the domain structure of Era, RsgA, RbgA, and HflX from S. aureus. The conserved GTPase domain (G domain) is colored in green, and accessory domains are shown. (B) Determination of binding affinities and Kd values for ^32P-labeled GTP, GDP, ppGpp, and pppGpp with purified recombinant 6×His-tagged RbgA using DRaCALA, as previously described ([36]). Each point is the mean average of at least three technical replicates, and error bars indicate standard deviations. (C) Binding assay (DRaCALA) of recombinant RbgA binding to ^32P-labeled GTP, ppGpp, and pppGpp in the presence of an excess of cold competitor (GTP, GDP, ppGpp, pppGpp, or ATP). All experiments were carried out in triplicate, with error bars representing standard deviations.
as §1, §3

HflX = HflX (Staphylococcus aureus, UniProt Q2FYY9); experiment: DRaCALA binding of 32P-labeled nucleotides to 6×His-tagged HflX; conditions: mean ± SEM; for Bmax, HflX: Bmax values indicate the fraction bound
Experimental: as §1, §2, §3

RsgA, sequence (P67682 whole entry): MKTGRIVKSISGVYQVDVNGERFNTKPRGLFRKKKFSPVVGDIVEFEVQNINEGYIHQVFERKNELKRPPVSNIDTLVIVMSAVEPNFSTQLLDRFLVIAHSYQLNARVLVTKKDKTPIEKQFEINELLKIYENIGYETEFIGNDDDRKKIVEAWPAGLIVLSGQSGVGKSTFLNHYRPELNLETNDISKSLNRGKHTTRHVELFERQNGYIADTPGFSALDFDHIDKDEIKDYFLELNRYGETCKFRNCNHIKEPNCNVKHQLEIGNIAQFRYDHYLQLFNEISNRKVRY
Era, sequence (Q2FGF6 whole entry, the tested form may be a part): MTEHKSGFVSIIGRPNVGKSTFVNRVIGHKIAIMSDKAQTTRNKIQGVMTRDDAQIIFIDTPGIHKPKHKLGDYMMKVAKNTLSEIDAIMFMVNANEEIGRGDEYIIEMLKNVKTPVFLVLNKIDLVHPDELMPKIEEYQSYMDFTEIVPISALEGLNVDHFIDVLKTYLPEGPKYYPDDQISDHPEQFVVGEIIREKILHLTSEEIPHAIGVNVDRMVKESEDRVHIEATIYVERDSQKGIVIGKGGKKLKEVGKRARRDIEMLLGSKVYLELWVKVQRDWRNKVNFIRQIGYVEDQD
HflX, sequence (Q2FYY9 entry or part of it): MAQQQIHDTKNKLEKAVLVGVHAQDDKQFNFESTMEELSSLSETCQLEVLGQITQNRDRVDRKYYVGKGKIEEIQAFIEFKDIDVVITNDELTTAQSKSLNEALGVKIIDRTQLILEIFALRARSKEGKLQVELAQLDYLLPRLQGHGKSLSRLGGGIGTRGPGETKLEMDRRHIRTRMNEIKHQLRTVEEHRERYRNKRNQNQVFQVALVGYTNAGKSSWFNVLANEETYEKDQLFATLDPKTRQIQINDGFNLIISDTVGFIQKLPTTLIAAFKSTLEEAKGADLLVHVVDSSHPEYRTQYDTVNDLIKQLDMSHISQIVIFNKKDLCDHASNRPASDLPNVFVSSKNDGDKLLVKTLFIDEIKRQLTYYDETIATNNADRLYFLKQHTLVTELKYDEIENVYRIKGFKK
RbgA, sequence (A0A0H2XK72 entry or part of it): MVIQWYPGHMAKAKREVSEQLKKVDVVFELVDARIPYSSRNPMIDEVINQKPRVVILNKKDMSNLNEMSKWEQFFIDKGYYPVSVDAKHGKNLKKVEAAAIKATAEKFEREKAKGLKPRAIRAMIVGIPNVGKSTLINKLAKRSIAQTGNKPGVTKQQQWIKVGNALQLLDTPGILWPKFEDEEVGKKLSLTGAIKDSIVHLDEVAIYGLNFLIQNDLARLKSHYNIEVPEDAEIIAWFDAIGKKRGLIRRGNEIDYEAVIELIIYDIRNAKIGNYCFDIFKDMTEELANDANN

Compound	Kd (Era; mean ± SEM, 32P-labeled nucleotide, 6×His-tagged protein, read-out: Kd, Era) [µM]	Bmax, Era (Era; mean ± SEM)	Kd (RsgA; mean ± SEM, 32P-labeled nucleotide, 6×His-tagged protein, read-out: Kd, RsgA) [µM]	Bmax, RsgA (RsgA; mean ± SEM)	Kd (RbgA; mean ± SEM, 32P-labeled nucleotide, 6×His-tagged protein, read-out: Kd, RbgA) [µM]	Bmax, RbgA (RbgA; mean ± SEM)	Kd (HflX; 32P-labeled nucleotide, 6×His-tagged protein, read-out: Kd, HflX) [µM]	Bmax, HflX (HflX)	Kd (Era) [µM]	Kd (RsgA) [µM]	Kd (RbgA) [µM]
Nc1nc2c(ncn2[C@@H]2O[C@H](COP(=O)(O)OP(=O)(O)O)[C@@H](OP(=O)(O)OP(=O)(O)O)[C@H]2O)c(=O)[nH]1 [ppGpp]	4.2 ± 0.6	0.4 ± 0.0	2.2 ± 0.2	0.9 ± 0.0	2.9 ± 0.4	0.6 ± 0.0	3.4 ± 0.4	0.6 ± 0.0	–	–	–
Nc1nc2c(ncn2[C@@H]2O[C@H](COP(=O)(O)OP(=O)(O)OP(=O)(O)O)[C@@H](OP(=O)(O)OP(=O)(O)O)[C@H]2O)c(=O)[nH]1 [pppGpp]	–	0.2 ± 0.0	–	0.4 ± 0.0	–	0.4 ± 0.0	–	0.5 ± 0.2	13.9 ± 4.7	10.1 ± 2.2	13.8 ± 4
